Consider one molecule from PMC5218480 (PLoS ONE, 2017).

This experiment concerns MV-4-11 cells. The experiment in a line: Gene expression microarray analysis (Affymetrix PrimeView) and GSEA. The note with it: MV-4-11 cells, 48 hours. On the set-up: RFU PODN (11730768_x_at) / Fold change /veh PODN (11730768_x_at) / RFU LINC00158 (11744669_a_at) / Fold change /veh LINC00158 (11744669_a_at) / RFU DUSP10 (11751237_a_at) / Fold change /veh DUSP10 (11751237_a_at) / RFU ID3 (11757404_x_at) / Fold change /veh ID3 (11757404_x_at) / RFU PLEKHG5 (11737974_s_at) / Fold change /veh PLEKHG5 (11737974_s_at) / RFU LRRC4B (11730491_at) / Fold change /veh LRRC4B (11730491_at) / RFU GIMAP4 (11747438_a_at) / Fold change /veh GIMAP4 (11747438_a_at) / RFU KRT8 (11758183_x_at) / Fold change /veh KRT8 (11758183_x_at) / RFU CNN1 (11734310_a_at) / Fold change /veh CNN1 (11734310_a_at) / RFU VPS37D (11726825_at) / Fold change /veh VPS37D (11726825_at) / RFU C10orf10 (11716522_x_at) / Fold change /veh C10orf10 (11716522_x_at) / RFU KIR2DL2 /// KIR2DL4 /// KIR2DL5A /// KIR2DL5B /// KIR2DS1 /// KIR2DS2 /// KIR2DS3 /// KIR2DS4 /// KIR3DL3 /// KIR3DL3 /// KIR3DS1 (11738374_at) / Fold change /veh KIR2DL2 /// KIR2DL4 /// KIR2DL5A /// KIR2DL5B /// KIR2DS1 /// KIR2DS2 /// KIR2DS3 /// KIR2DS4 /// KIR3DL3 /// KIR3DL3 /// KIR3DS1 (11738374_at) / RFU C1QL1 (11718748_at) / Fold change /veh C1QL1 (11718748_at) / RFU TMPRSS4 (11747572_a_at) / Fold change /veh TMPRSS4 (11747572_a_at) / RFU HAMP (11756126_x_at) / Fold change /veh HAMP (11756126_x_at) / RFU RNFT2 (11725882_a_at) / Fold change /veh RNFT2 (11725882_a_at) / RFU NR4A2 (11747474_a_at) / Fold change /veh NR4A2 (11747474_a_at) / RFU ABCC12 (11746883_a_at) / Fold change /veh ABCC12 (11746883_a_at) / RFU TMEM136 (11760407_x_at) / Fold change /veh TMEM136 (11760407_x_at) / RFU CLDN22 /// WWC2 (11732394_at) / Fold change /veh CLDN22 /// WWC2 (11732394_at) / RFU HLA-DPB1 (11760878_x_at) / Fold change /veh HLA-DPB1 (11760878_x_at) / RFU SPINT1 (11716480_a_at) / Fold change /veh SPINT1 (11716480_a_at) / RFU GAP43 (11754022_s_at) / Fold change /veh GAP43 (11754022_s_at) / RFU A4GNT (11735810_at) / Fold change /veh A4GNT (11735810_at) / RFU PRB3 (11715151_x_at) / Fold change /veh PRB3 (11715151_x_at) / RFU TUBB4B (11761932_at) / Fold change /veh TUBB4B (11761932_at) / RFU CAPN14 (11732068_a_at) / Fold change /veh CAPN14 (11732068_a_at) / RFU TMCC2 (11721928_a_at) / Fold change /veh TMCC2 (11721928_a_at) / RFU IRGQ (11745062_a_at) / Fold change /veh IRGQ (11745062_a_at) / RFU FAM174B (11720279_a_at) / Fold change /veh FAM174B (11720279_a_at) / RFU TMPRSS4 (11748680_a_at) / Fold change /veh TMPRSS4 (11748680_a_at) / RFU FAM212B (11763350_a_at) / Fold change /veh FAM212B (11763350_a_at) / RFU PLEKHG5 (11743358_a_at) / Fold change /veh PLEKHG5 (11743358_a_at) / RFU ZSCAN30 (11745921_a_at) / Fold change /veh ZSCAN30 (11745921_a_at) / RFU CMKLR1 (11741424_a_at) / Fold change /veh CMKLR1 (11741424_a_at) / RFU LOC101060620 /// MAPK8IP1 (11723275_at) / Fold change /veh LOC101060620 /// MAPK8IP1 (11723275_at) / RFU SPTSSB (11747773_x_at) / Fold change /veh SPTSSB (11747773_x_at) / RFU PRSS12 (11739890_at) / Fold change /veh PRSS12 (11739890_at) / RFU BIN1 (11741810_x_at) / Fold change /veh BIN1 (11741810_x_at) / RFU WNT11 (11732464_a_at) / Fold change /veh WNT11 (11732464_a_at) / RFU C10orf10 (11716521_a_at) / Fold change /veh C10orf10 (11716521_a_at) / RFU C5orf56 (11738089_at) / Fold change /veh C5orf56 (11738089_at) / RFU CYB561 (11721691_x_at) / Fold change /veh CYB561 (11721691_x_at) / RFU ANKRD19P (11752326_a_at) / Fold change /veh ANKRD19P (11752326_a_at) / RFU OR2T12 /// OR2T33 /// OR2T8 (11738714_s_at) / Fold change /veh OR2T12 /// OR2T33 /// OR2T8 (11738714_s_at) / RFU VCAN (11748164_a_at) / Fold change /veh VCAN (11748164_a_at) / RFU JSRP1 (11732532_at) / Fold change /veh JSRP1 (11732532_at) / RFU KRTAP10-11 (11738290_x_at) / Fold change /veh KRTAP10-11 (11738290_x_at) / RFU MYO3A (11730013_a_at) / Fold change /veh MYO3A (11730013_a_at) / RFU EBF3 (11725865_a_at) / Fold change /veh EBF3 (11725865_a_at) / RFU CAMK2N1 (11719241_x_at) / Fold change /veh CAMK2N1 (11719241_x_at) / RFU C5orf56 (11738088_a_at) / Fold change /veh C5orf56 (11738088_a_at) / RFU OLFML3 (11715873_a_at) / Fold change /veh OLFML3 (11715873_a_at) / RFU LOC100653217 /// NTM (11731650_a_at) / Fold change /veh LOC100653217 /// NTM (11731650_a_at) / RFU MAPK11 (11762145_a_at) / Fold change /veh MAPK11 (11762145_a_at) / RFU FIZ1 (11724087_x_at) / Fold change /veh FIZ1 (11724087_x_at) / RFU OASL (11726364_x_at) / Fold change /veh OASL (11726364_x_at) / RFU SOX15 (11748057_x_at) / Fold change /veh SOX15 (11748057_x_at) / RFU CD79A (11719716_a_at) / Fold change /veh CD79A (11719716_a_at) / RFU HIST1H1D (11736915_at) / Fold change /veh HIST1H1D (11736915_at) / RFU CASKIN2 (11723855_a_at) / Fold change /veh CASKIN2 (11723855_a_at) / RFU LOC730098 (11760151_x_at) / Fold change /veh LOC730098 (11760151_x_at) / RFU OR4N2 (11742367_at) / Fold change /veh OR4N2 (11742367_at) / RFU PRRT2 (11749266_a_at) / Fold change /veh PRRT2 (11749266_a_at) / RFU SNX32 (11753110_a_at) / Fold change /veh SNX32 (11753110_a_at) / RFU CDHR5 (11726645_a_at) / Fold change /veh CDHR5 (11726645_a_at) / RFU RCAN1 (11760418_a_at) / Fold change /veh RCAN1 (11760418_a_at) / RFU FAM167A (11723789_a_at) / Fold change /veh FAM167A (11723789_a_at) / RFU FAM26E (11764081_at) / Fold change /veh FAM26E (11764081_at) / RFU ISYNA1 (11749810_s_at) / Fold change /veh ISYNA1 (11749810_s_at) / RFU ACY1 (11761880_at) / Fold change /veh ACY1 (11761880_at) / RFU 11764098_at / Fold change /veh 11764098_at / RFU SAMD14 (11745864_x_at) / Fold change /veh SAMD14 (11745864_x_at) / RFU NPB (11741838_a_at) / Fold change /veh NPB (11741838_a_at) / RFU TMPRSS6 (11731388_a_at) / Fold change /veh TMPRSS6 (11731388_a_at) / RFU KRTAP10-2 (11738614_at) / Fold change /veh KRTAP10-2 (11738614_at) / RFU ARHGAP8 /// PRR5-ARHGAP8 (11727945_x_at) / Fold change /veh ARHGAP8 /// PRR5-ARHGAP8 (11727945_x_at) / RFU KRTAP5-7 /// NADSYN1 (11734609_at) / Fold change /veh KRTAP5-7 /// NADSYN1 (11734609_at) / RFU RASL12 (11751679_a_at) / Fold change /veh RASL12 (11751679_a_at) / RFU CDKN2B (11736163_a_at) / Fold change /veh CDKN2B (11736163_a_at) / RFU PRF1 (11729649_at) / Fold change /veh PRF1 (11729649_at) / RFU, ZNF638 /// ZNF638-IT1 / Fold change vs veh, ZNF638 /// ZNF638-IT1 / RFU, PANK3 / Fold change vs veh, PANK3 / RFU, SH3YL1 / Fold change vs veh, SH3YL1 / RFU, ZEB2 / Fold change vs veh, ZEB2 / RFU, NRIP1 / Fold change vs veh, NRIP1 / RFU, PTTG1IP / Fold change vs veh, PTTG1IP / RFU, CAPN2 / Fold change vs veh, CAPN2 / RFU, MED14 / Fold change vs veh, MED14 / RFU, SNORA58 / Fold change vs veh, SNORA58 / RFU, C1orf63 / Fold change vs veh, C1orf63 / RFU, LRRFIP1 / Fold change vs veh, LRRFIP1 / RFU, NDUFAF7 / Fold change vs veh, NDUFAF7 / RFU, SLC12A2 / Fold change vs veh, SLC12A2 / RFU, IBTK / Fold change vs veh, IBTK / RFU, ESF1 / Fold change vs veh, ESF1 / Fold change vs veh, TMEM50B / RFU, TAOK1 / Fold change vs veh, TAOK1 / RFU, ACBD3 / Fold change vs veh, ACBD3 / RFU, TMA16 / Fold change vs veh, TMA16 / RFU, RWDD3 / Fold change vs veh, RWDD3 / RFU, BCAT1 / Fold change vs veh, BCAT1 / RFU, EDEM3 / Fold change vs veh, EDEM3 / RFU, TMEM33 / Fold change vs veh, TMEM33 / RFU, WDR75 / Fold change vs veh, WDR75 / RFU, AHCTF1 / Fold change vs veh, AHCTF1 / RFU, TFRC / Fold change vs veh, TFRC / RFU, ZDHHC17 / Fold change vs veh, ZDHHC17 / RFU, NOM1 / Fold change vs veh, NOM1 / RFU, ARL8B / Fold change vs veh, ARL8B / RFU, ZBTB11 / Fold change vs veh, ZBTB11 / RFU, TAMM41 / Fold change vs veh, TAMM41 / RFU, KIAA1704 /// LOC100996395 / Fold change vs veh, KIAA1704 /// LOC100996395 / RFU, ING1 / Fold change vs veh, ING1 / RFU, TRMT61B / Fold change vs veh, TRMT61B / RFU, FUBP3 / Fold change vs veh, FUBP3 / RFU, TP53 / Fold change vs veh, TP53 / RFU, TNKS2 / Fold change vs veh, TNKS2 / RFU, ZFP14 / Fold change vs veh, ZFP14 / RFU, ACTR2 / Fold change vs veh, ACTR2 / RFU, PPP3R1 / Fold change vs veh, PPP3R1 / RFU, PIK3R1 / Fold change vs veh, PIK3R1 / RFU, HNRNPA1 / Fold change vs veh, HNRNPA1 / RFU, RNF170 / Fold change vs veh, RNF170 / RFU, ZNF28 / Fold change vs veh, ZNF28 / RFU, RNGTT / Fold change vs veh, RNGTT / RFU, OGT / Fold change vs veh, OGT / RFU, BRD1 / Fold change vs veh, BRD1 / RFU, MARS / Fold change vs veh, MARS / RFU, ZNF655 / Fold change vs veh, ZNF655 / RFU, FAHD1 / Fold change vs veh, FAHD1 / RFU, BDP1 / Fold change vs veh, BDP1 / RFU, LRRCC1 / Fold change vs veh, LRRCC1 / RFU, ARID1A / Fold change vs veh, ARID1A / RFU, ZNF146 / Fold change vs veh, ZNF146 / RFU, ZNF330 / Fold change vs veh, ZNF330 / RFU, GPN3 / Fold change vs veh, GPN3 / RFU, C9orf123 / Fold change vs veh, C9orf123 / RFU, N4BP2L2 / Fold change vs veh, N4BP2L2 / RFU, ARFIP1 / Fold change vs veh, ARFIP1 / RFU, FAM179B / Fold change vs veh, FAM179B / RFU, BCL10 / Fold change vs veh, BCL10 / RFU, UHRF1BP1L / Fold change vs veh, UHRF1BP1L / RFU, BET1 / Fold change vs veh, BET1 / RFU, CNOT2 / Fold change vs veh, CNOT2 / RFU, ZNF268 / Fold change vs veh, ZNF268 / Fold change vs veh, ZNF507 / RFU, DGCR2 / Fold change vs veh, DGCR2 / RFU, WDSUB1 / Fold change vs veh, WDSUB1 / Fold change vs veh, HSP90B1 /// MIR3652 / RFU, ADSS / Fold change vs veh, ADSS / RFU, GK / Fold change vs veh, GK / RFU, ZNF148 / Fold change vs veh, ZNF148 / RFU, TAF9 / Fold change vs veh, TAF9 / RFU, SLC1A5 / Fold change vs veh, SLC1A5 / RFU, SLMO2 / Fold change vs veh, SLMO2 / RFU, ABCC4 / Fold change vs veh, ABCC4 / RFU, LOC101060439 /// RAP1B / Fold change vs veh, LOC101060439 /// RAP1B / RFU, RFX7 / Fold change vs veh, RFX7 / RFU, GTPBP10 / Fold change vs veh, GTPBP10 / RFU, CNEP1R1 / Fold change vs veh, CNEP1R1 / RFU, BIVM-ERCC5 /// ERCC5 / Fold change vs veh, BIVM-ERCC5 /// ERCC5 / RFU, ILF3 / Fold change vs veh, ILF3 / RFU 11762660_at / Fold change /veh 11762660_at / RFU VCAN (11757783_s_at) / Fold change /veh VCAN (11757783_s_at) / RFU DDX43 (11728927_at) / Fold change /veh DDX43 (11728927_at) / RFU KRT8 (11758188_x_at) / Fold change /veh KRT8 (11758188_x_at) / RFU NKD1 (11759106_at) / Fold change /veh NKD1 (11759106_at) / RFU SRD5A1 (11742802_a_at) / Fold change /veh SRD5A1 (11742802_a_at) / RFU TPSAB1 /// TPSB2 (11721975_s_at) / Fold change /veh TPSAB1 /// TPSB2 (11721975_s_at) / RFU GSTM3 (11746129_a_at) / Fold change /veh GSTM3 (11746129_a_at) / RFU IL23R (11737362_x_at) / Fold change /veh IL23R (11737362_x_at) / RFU TMEM51 (11727254_a_at) / Fold change /veh TMEM51 (11727254_a_at) / RFU PIWIL2 (11732686_x_at) / Fold change /veh PIWIL2 (11732686_x_at) / RFU ORM1 (11744905_x_at) / Fold change /veh ORM1 (11744905_x_at) / RFU CCDC152 (11743942_at) / Fold change /veh CCDC152 (11743942_at) / RFU ECM1 (11717891_a_at) / Fold change /veh ECM1 (11717891_a_at) / RFU IL23R (11748794_a_at) / Fold change /veh IL23R (11748794_a_at) / RFU TNFAIP8L3 (11732012_x_at) / Fold change /veh TNFAIP8L3 (11732012_x_at) / RFU MBOAT4 (11741988_at) / Fold change /veh MBOAT4 (11741988_at) / RFU 11764193_at / Fold change /veh 11764193_at / RFU TMEM53 (11763286_at) / Fold change /veh TMEM53 (11763286_at) / RFU MAGEB2 (11727129_at) / Fold change /veh MAGEB2 (11727129_at) / RFU TMEM200A (11744735_a_at) / Fold change /veh TMEM200A (11744735_a_at) / RFU CCDC152 (11751479_a_at) / Fold change /veh CCDC152 (11751479_a_at) / RFU FAM211A (11726209_a_at) / Fold change /veh FAM211A (11726209_a_at) / RFU RGS16 (11746705_a_at) / Fold change /veh RGS16 (11746705_a_at) / RFU VCAN (11755009_s_at) / Fold change /veh VCAN (11755009_s_at) / RFU RHOB (11743442_s_at) / Fold change /veh RHOB (11743442_s_at) / RFU RGS16 (11720943_a_at) / Fold change /veh RGS16 (11720943_a_at) / RFU RGS16 (11720944_at) / Fold change /veh RGS16 (11720944_at) / RFU, VPS4B / Fold change vs veh, VPS4B / RFU, CREB1 / Fold change vs veh, CREB1 / RFU, DNAJC13 / Fold change vs veh, DNAJC13 / RFU, GNAQ / Fold change vs veh, GNAQ / RFU, CDK5R1 / Fold change vs veh, CDK5R1 / RFU, ZRANB3 / Fold change vs veh, ZRANB3 / RFU, CUL4A / Fold change vs veh, CUL4A / RFU, CCNY / Fold change vs veh, CCNY / RFU, UFL1 / Fold change vs veh, UFL1 / RFU, COG3 / Fold change vs veh, COG3 / RFU, DIAPH2 / Fold change vs veh, DIAPH2 / RFU, SKA2 / Fold change vs veh, SKA2 / RFU, AFF3 / Fold change vs veh, AFF3 / RFU, LMF1 / Fold change vs veh, LMF1 / RFU, IPO11 / Fold change vs veh, IPO11 / RFU, DFFB / Fold change vs veh, DFFB / RFU, FOXP1 / Fold change vs veh, FOXP1 / RFU, CARD8 / Fold change vs veh, CARD8 / RFU, STRN3 / Fold change vs veh, STRN3 / RFU, ADK / Fold change vs veh, ADK / RFU, RASSF2 / Fold change vs veh, RASSF2 / RFU, WIPF1 / Fold change vs veh, WIPF1 / RFU, LARP1B / Fold change vs veh, LARP1B / RFU, RASA1 / Fold change vs veh, RASA1 / RFU, RB1 / Fold change vs veh, RB1 / RFU, PPFIA1 / Fold change vs veh, PPFIA1 / RFU, MAT2A / Fold change vs veh, MAT2A / RFU, CCT5 / Fold change vs veh, CCT5 / RFU, WDR92 / Fold change vs veh, WDR92 / RFU, CUX1 / Fold change vs veh, CUX1 / RFU, TTC7A / Fold change vs veh, TTC7A / RFU, TMEM135 / Fold change vs veh, TMEM135 / RFU, DEPTOR / Fold change vs veh, DEPTOR / RFU, CPM / Fold change vs veh, CPM / RFU, DNAJB6 / Fold change vs veh, DNAJB6 / RFU, CACNA2D3 / Fold change vs veh, CACNA2D3 / RFU, DTX4 / Fold change vs veh, DTX4 / RFU, TFCP2 / Fold change vs veh, TFCP2 / RFU, GMCL1 /// GMCL1P1 / Fold change vs veh, GMCL1 /// GMCL1P1 / RFU, AEBP2 / Fold change vs veh, AEBP2 / RFU, SNHG1 /// SNORD22 /// SNORD25 /// SNORD26 /// SNORD27 /// SNORD28 /// SNORD29 /// SNORD31 / Fold change vs veh, SNHG1 /// SNORD22 /// SNORD25 /// SNORD26 /// SNORD27 /// SNORD28 /// SNORD29 /// SNORD31 / Fold change (Aza/veh), C12orf56 (ProbeSet 11735607_a_at) / Fold change (ACY-1035/veh), C12orf56 (ProbeSet 11735607_a_at) / Fold change (Aza/veh), FGFR1OP (ProbeSet 11751329_s_at) / Fold change (ACY-1035/veh), FGFR1OP (ProbeSet 11751329_s_at) / Fold change (Aza/veh), VPS36 (ProbeSet 11739960_a_at) / Fold change (ACY-1035/veh), VPS36 (ProbeSet 11739960_a_at) / RFU SYPL1 (11715823_x_at) / Fold change /veh SYPL1 (11715823_x_at) / RFU IGFBP7 (11715501_s_at) / Fold change /veh IGFBP7 (11715501_s_at) / RFU REEP3 (11722064_at) / Fold change /veh REEP3 (11722064_at) / RFU IGLL1 (11728026_x_at) / Fold change /veh IGLL1 (11728026_x_at): dose or concentration left out as unconfirmed. Format: cell-based, human.

Regarding `Nc1ccc(-c2cccs2)cc1NC(=O)c1ccc2c(c1)cc(C1CC1)n2CCN1CCOCC1` [ACY-1035], the “Fold change /veh CDHR5 (11726645_a_at)” value is listed as 1.11.
